Experimental findings from ChEMBL document CHEMBL1142318, “Azetidine based transition state analogue inhibitors of N-ribosyl hydrolases and phosphorylases” (J Med Chem, 2008) are described below.

The target of assay [1] is T1, Purine nucleoside phosphorylase (Plasmodium falciparum, UniProt Q8T9Z7).
T1 sequence (Q8T9Z7 whole entry): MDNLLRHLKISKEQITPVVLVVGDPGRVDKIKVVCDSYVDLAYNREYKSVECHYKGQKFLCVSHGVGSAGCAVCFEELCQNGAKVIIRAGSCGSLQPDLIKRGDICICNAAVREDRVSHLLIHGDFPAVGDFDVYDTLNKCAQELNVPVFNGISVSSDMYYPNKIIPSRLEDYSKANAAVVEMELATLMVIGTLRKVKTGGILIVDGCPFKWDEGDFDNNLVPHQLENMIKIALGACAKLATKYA
As to the kind of experiment: Inhibition of Plasmodium falciparum PNP.

The target in assay [2] is T2, S-methyl-5'-thioadenosine phosphorylase (Homo sapiens, UniProt Q13126).
T2 sequence (Q13126 whole entry): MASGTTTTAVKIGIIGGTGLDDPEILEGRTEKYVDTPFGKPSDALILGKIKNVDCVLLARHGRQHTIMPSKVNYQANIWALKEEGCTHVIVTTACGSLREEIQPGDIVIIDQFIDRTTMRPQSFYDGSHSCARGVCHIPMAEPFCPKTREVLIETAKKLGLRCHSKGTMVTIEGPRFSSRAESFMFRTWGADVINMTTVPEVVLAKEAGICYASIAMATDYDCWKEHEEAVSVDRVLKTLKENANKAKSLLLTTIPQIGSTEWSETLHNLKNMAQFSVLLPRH
As to the kind of experiment: Inhibition of human MTAP.

For assay [3], the target named is T3, 5'-methylthioadenosine/S-adenosylhomocysteine nucleosidase (Streptococcus pneumoniae serotype 4 (strain ATCC BAA-334 / TIGR4), UniProt A0A0H2UPP7).
T3 sequence (A0A0H2UPP7 whole entry): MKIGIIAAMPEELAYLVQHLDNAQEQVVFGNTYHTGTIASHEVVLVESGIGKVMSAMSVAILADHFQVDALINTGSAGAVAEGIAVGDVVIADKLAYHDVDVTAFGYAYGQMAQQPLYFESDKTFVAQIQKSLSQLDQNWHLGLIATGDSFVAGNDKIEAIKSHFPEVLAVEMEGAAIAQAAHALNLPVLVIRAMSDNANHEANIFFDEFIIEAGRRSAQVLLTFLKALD
In words: Inhibition of Streptococcus pneumoniae MTAN.

Assay [4] concerns the target 5'-methylthioadenosine/S-adenosylhomocysteine nucleosidase (Escherichia coli O157:H7, UniProt P0AF14).
For assay [5], the target named is T4, Purine nucleoside phosphorylase (Bos taurus, UniProt P55859).
T4 sequence (P55859 whole entry): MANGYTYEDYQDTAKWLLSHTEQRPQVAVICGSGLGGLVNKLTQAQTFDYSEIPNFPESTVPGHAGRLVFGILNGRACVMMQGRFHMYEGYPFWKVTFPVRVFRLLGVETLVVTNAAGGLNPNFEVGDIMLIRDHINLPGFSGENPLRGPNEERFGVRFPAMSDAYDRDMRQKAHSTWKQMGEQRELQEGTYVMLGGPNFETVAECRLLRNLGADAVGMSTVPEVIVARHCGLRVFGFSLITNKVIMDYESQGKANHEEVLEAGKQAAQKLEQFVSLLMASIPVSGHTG
In words: Inhibition of bovine PNP.

For assay [6], the target named is T5, Purine nucleoside phosphorylase (Homo sapiens, UniProt P00491).
T5 sequence (P00491 whole entry): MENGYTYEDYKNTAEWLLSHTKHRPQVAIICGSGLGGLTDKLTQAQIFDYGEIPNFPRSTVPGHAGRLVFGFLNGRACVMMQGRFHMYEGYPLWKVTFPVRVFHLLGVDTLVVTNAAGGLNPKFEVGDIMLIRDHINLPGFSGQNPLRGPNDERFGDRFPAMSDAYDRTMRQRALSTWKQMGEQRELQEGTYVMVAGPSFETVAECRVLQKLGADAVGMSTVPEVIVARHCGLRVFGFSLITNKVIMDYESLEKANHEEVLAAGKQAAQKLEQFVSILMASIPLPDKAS
In words: Inhibition of human PNP.

Sequence of 5'-methylthioadenosine/S-adenosylhomocysteine nucleosidase (Escherichia coli O157:H7, UniProt P0AF14) (P0AF14 whole entry): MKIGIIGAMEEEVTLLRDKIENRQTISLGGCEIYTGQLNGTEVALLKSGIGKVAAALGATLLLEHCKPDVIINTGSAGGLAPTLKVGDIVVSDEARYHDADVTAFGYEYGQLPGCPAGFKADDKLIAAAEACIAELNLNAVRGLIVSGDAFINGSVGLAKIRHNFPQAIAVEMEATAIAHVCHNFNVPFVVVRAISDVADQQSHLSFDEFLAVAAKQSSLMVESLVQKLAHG

As usually defined, the Ki is a measure of affinity in units of concentration, obtained from inhibition or displacement. Consider `O=c1[nH]cnc2c(CN3CC(CO)C3)c[nH]c12`, for which, in assay [1], the Ki is above 10000 nM.

Turning to `CSC[C@H]1CN(Cc2c[nH]c3c(N)ncnc23)C[C@@H]1O`, the Ki in assay [2] was 0.09 nM; in assay [3], 24 nM; in assay [4], 0.002 nM.

On to `CSCC1CN(Cc2c[nH]c3c(N)ncnc23)C1`, for which the Ki in assay [3] worked out at 84 nM; in assay [4], 0.45 nM.

In the case of `O=c1[nH]cnc2c(CN3C(CO)CC3CO)c[nH]c12` (stereo not drawn), the figures for the Ki in assay [5], in assay [1] and in assay [6] were 16 nM, 1290 nM and 12.9 nM, respectively.

As for `CSCC1(CO)CN(Cc2c[nH]c3c(N)ncnc23)C1`, the Ki in assay [3] amounted to 150 nM; in assay [4], 0.84 nM.

Regarding `O=c1[nH]cnc2c(CN3CC(CO)(CO)C3)c[nH]c12`, the Ki in assay [1] is above 10000 nM.

Turning to `O=c1[nH]cnc2c(CN3[C@@H](CO)C[C@@H]3CO)c[nH]c12` (racemic), the figures for the Ki in assay [5], in assay [1] and in assay [6] were 360 nM, 580 nM and 280 nM, respectively.

Consider `O=c1[nH]cnc2c(CN3C[C@H](CO)[C@@H](O)C3)c[nH]c12` [ULODESINE], for which the Ki in assay [5] worked out at 0.1 nM; in assay [1] it was 0.5 nM; in assay [6], 0.0107 nM.
